{"source": "patent US9447083B2", "about": "“N-acylhydrazone derivatives for selective T cell inhibitor and anti-lymphoid malignancy drug” (CHONG KUN DANG PHARMACEUTICAL CORP., priority 2012, dated 2016)", "key": {"[1]": {"tested_on": "Experimental Autoimmune Encephalomyelitis (EAE)", "assay": "Experimental Autoimmune Encephalomyelitis (EAE) model of multiple sclerosis", "type": "in vivo, mouse", "description": "At the first day of induction, myelin oligodendrocyte glycoprotein35-55 (MOG35-55, Peptron) (200 ug), mycobacterium tuberculosis (Difco, Cat No. 231141) (500 μg) and complete Freund's adjuvant (Sigma Aldrich, Cat No. F5506) were mixed with each other and immersed for 5 minutes. 0.1 mL of the immersed peptide was injected subcutaneously into both the flanks of each of C57BL/6 mice (9 week old, female, 18±2 g), followed by that […] pertussis toxin (Sigma Aldrich, Cat No. P2980) (200 ng) was injected by intravenously. At 2 days, the same amount of pertussis toxin was administered intravenously. Whether the immersion leaked from the injected portion of the mice was checked, and whether EAE was induced was also examined by visual observation from 7 days.\nCompound 229 and Fingolimod that is currently clinically used for the treatment of multiple sclerosis were completely dissolved in a Cremophor EL-ethanol mixture (1:1, v/v) in an amount corresponding to 7.5% (v/v) of the administration volume, and the compound solution was diluted in PBS. The two groups of the mice were administered orally with 200 μL of the diluted solution of compound 229 at each doses of 25 and 50 mg/kg separately, and the third group of the mice was administered orally with 200 μL of the diluted solution of fingolimode at a dose of 1 mg/kg on a daily basis from 17 days to 37 days (for total 21 times) after starting of the experiment. In a vehicle control group, 200 μL of a Cremophor EL-ethanol-PBS mixture (3.75:3.75:92.5, v/v/v) was administered to each mouse in the same manner as the treated group. The index of EAE was recorded daily based on visual observation using a severity index system (6-point (0 to 5) scale) from 7 days of the experiment. The symptoms of multiple sclerosis were evaluated based on the following criteria:\n2: limp tail and hind limb weakness;\n4: hind limb paralysis and forelimb weakness; and […]"}, "[2]": {"tested_on": "alloantigen-specific T cells", "assay": "Inhibitory effect on alloantigen-specific T cells in vivo (donor T cells in spleen of irradiated BDF1 mice)", "parameters": "species or system mouse", "settings": "for number of alloantigen-specific T cells in the spleen: compared to vehicle, concentration-dependent", "description": "Lymph nodes and spleens were aseptically collected from normal C57BL/6-Ly5.1 mice (8-12 week old, female, 20±2 g), and T cells were isolated in the same manner as described in Experimental Example 2, and were then re-suspended in PBS at a concentration of 1×10^8 cells/mL. Normal BDF1 mice (10-12 week old, female, 20-23 g) were irradiated with 950 rad of γ radiation, and then 100 μL of the above-prepared T cells of C57BL/6-Ly5.1 mice were injected into the tail vein of the BDF1 mice. Compound 229 was completely dissolved in a Cremophor EL (Sigma)/ethanol mixture (1:1, v/v) in an amount corresponding to 15% (v/v) of the administration volume for intraperitoneal administration and in an amount corresponding to 7.5% (v/v) for oral administration, and the compound solution was diluted in PBS. The dilution was administered intraperitoneally (200 μL/mouse) or orally (500 μL/mouse) every day for 5 days from the day of the cell injection. A vehicle control group was administered with a Cremophor EL-ethanol-PBS mixture in the same ratio and volume as those of the test group. At 6 days after the cell injection, the mice were sacrificed, the spleens were collected from the mice, and erythrocyte-free spleen cells were made in the same manner as described in Experimental Example 2. The spleen cells were stained with trypan blue, and the number of viable cells per organ of each animal was counted. Then, the spleen cells were put into 5 mL FACS tubes and washed with 1 mL of FACS buffer. The cells were re-suspended in 0.1 mL of FACS buffer, and then treated with […] of mouse immunoglobulin G in order to prevent the non-specific binding of antibody, followed by incubation at 4° C. for 15 minutes. […] The stained cells were washed twice with 1 mL of FACS buffer, re-suspended in 0.3 mL of FACS buffer and analyzed by a flow cytometer. The number of donor T cells in the spleen was determined by measuring the ratio (%) of a donor T cell fraction (Ly5.1^+ cells) relative to viable cells per spleen."}, "KMS20": {"tested_on": "KMS20", "assay": "Apoptosis of lymphoid malignancy cell lines: KMS20", "type": "cell-based", "settings": "KMS-20; KMS20, Multiple myeloma, 24 hours; read-out: Administration Dose (mean ± SD, μmol/L) Lethal Dose 50 (Apoptosis)"}}, "data": [{"smiles": "Cc1cc(C)c(OCC(=O)N/N=C/c2ccc3cc[nH]c3c2)c(C2CCOC2)c1", "note": "(centres unmarked) [Compound 229, (E)-N′-((1H-indol-6-yl)methylene)-2-(2,4-dimethyl-6-(tetrahydrofuran-3-yl)phenoxy)acetohydrazide]", "values": [{"measurement": "severity index (EAE, 0 to 5 scale)", "setting": "[1]; 25 mg/kg orally daily from 17 to 37 days, at 17 days (start of administration)", "value": "3±1"}, {"measurement": "severity index (EAE, 0 to 5 scale)", "setting": "[1]; 25 mg/kg orally daily from 17 to 37 days, at 39 days, vehicle 2.5±0.75", "value": "1.25±0.75"}, {"measurement": "severity index (EAE, 0 to 5 scale)", "setting": "[1]; 25 mg/kg orally daily from 17 to 37 days, at 55 days", "value": "1.17±0.75"}, {"measurement": "severity index (EAE, 0 to 5 scale)", "setting": "[1]; 25 mg/kg orally daily from 17 to 37 days, at 101 days, vehicle 2.33±0.25", "value": "1.83±0.5"}, {"measurement": "severity index (EAE, 0 to 5 scale)", "setting": "[1]; 50 mg/kg orally daily from 17 to 37 days, at 17 days (start of administration)", "value": "3±0.75"}, {"measurement": "severity index (EAE, 0 to 5 scale)", "setting": "[1]; 50 mg/kg orally daily from 17 to 37 days, at 39 days, vehicle 2.5±0.75", "value": "0.9±0.25"}, {"measurement": "severity index (EAE, 0 to 5 scale)", "setting": "[1]; 50 mg/kg orally daily from 17 to 37 days, at 101 days, vehicle 2.33±0.25", "value": "0.63±0.25"}, {"measurement": "number of alloantigen-specific T cells in the spleen", "setting": "[2]; administered intraperitoneally every day for 5 days", "value": "significantly decreased"}, {"measurement": "number of alloantigen-specific T cells in the spleen", "setting": "[2]; administered orally every day for 5 days", "value": "significantly decreased"}, {"measurement": "proliferation of T cells that responded to the alloantigen in vivo", "setting": "[2]; dose of 50 mg/kg", "value": "completely inhibited"}, {"measurement": "EC50", "setting": "KMS20", "value": "0.74 ± 0.05", "unit": "µmol/L"}]}]}
